Measurements as given in patent US10485235B2, “Aryloxypyrimidinyl ethers as herbicides” (FMC Corporation, priority 2015, dated 2019).

These compounds were tested on kochia (Kochia scoparia) (assay: Test A preemergence, kochia). Conditions: Bassia scoparia, pre-emergence, 240 h; Preemergence, 31 g ai/ha; 0 to 100 scale (0 no effect, 100 complete control); read-out: Plant response rating, Kochia.
Format: in vivo
Procedure, shortened: (§1)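 Plants grown in pots of loam blended with sand were treated either before emergence, via directed soil spray, or after emergence at the one- to two-leaf stage. Following about 10 days in the greenhouse, each treatment was visually compared with untreated controls and rated from 0 (no effect) to 100 (complete control).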

Row | SMILES | pest or weed control at 31 g/ha [%]
1 | FC(F)(F)COc1c(I)cccc1Oc1ncc(Cl)cn1 [Compound 65] | 20

Same assay, conditions: Bassia scoparia, pre-emergence, 240 h; Preemergence, 125 g ai/ha; 0 to 100 scale (0 no effect, 100 complete control); read-out: Plant response rating, Kochia

Row | SMILES | pest or weed control at 125 g/ha [%]
2 | FC(F)(F)COc1c(I)cccc1Oc1ncc(Cl)cn1 [Compound 65] | 90

The compounds below were run on barnyardgrass (Echinochloa crus-galli) (assay: Test B flooded paddy test, barnyardgrass). Conditions: Echinochloa crus-galli; 250 g ai/ha, Flood; visual rating after 13 to 15 days; scale 0 to 100, 0 is no effect, 100 is complete control; read-out: Plant response rating, Barnyardgrass.
Format: in vivo
Procedure, shortened: (§2)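 Visual ratings, 0 = no effect to 100 = complete control, versus controls after 13 to 15 days in greenhouse. Test compounds were added to paddy water kept 3 cm over the soil surface, on plants at 2-leaf stage.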

Row | SMILES | pest or weed control at 250 g/ha [%]
3 | FC(F)(F)COc1c(I)cccc1Oc1ncc(Cl)cn1 [Compound 65] | 20

What follows are compounds tested on ragweed (common ragweed, Ambrosia elatior) (assay: Test A postemergence, ragweed). Conditions: Ambrosia artemisiifolia, post-emergence, 240 h; 31 g ai/ha, postemergence; 0 to 100 scale, 0 is no effect, 100 is complete control; approximately 10 days; read-out: Plant response rating, Ragweed.
Format: in vivo
Procedure, shortened: as §1

Row | SMILES | pest or weed control at 31 g/ha [%]
4 | FC(F)(F)COc1c(I)cccc1Oc1ncc(Cl)cn1 [Compound 65] | 0

Same assay, conditions: Ambrosia artemisiifolia, post-emergence, 240 h; 125 g ai/ha, postemergence; 0 to 100 scale, 0 is no effect, 100 is complete control; approximately 10 days; read-out: Plant response rating, Ragweed

Row | SMILES | pest or weed control at 125 g/ha [%]
5 | FC(F)(F)COc1c(I)cccc1Oc1ncc(Cl)cn1 [Compound 65] | 0

These compounds were tested on pigweed (Amaranthus retroflexus) (assay: Test A preemergence, pigweed). Conditions: Amaranthus retroflexus, pre-emergence, 240 h; Preemergence, 31 g ai/ha; 0 to 100 scale (0 no effect, 100 complete control); read-out: Plant response rating, Pigweed.
Format: in vivo
Procedure, shortened: as §1

Row | SMILES | pest or weed control at 31 g/ha [%]
6 | FC(F)(F)COc1c(I)cccc1Oc1ncc(Cl)cn1 [Compound 65] | 50

Same assay, conditions: Amaranthus retroflexus, pre-emergence, 240 h; Preemergence, 125 g ai/ha; 0 to 100 scale (0 no effect, 100 complete control); read-out: Plant response rating, Pigweed

Row | SMILES | pest or weed control at 125 g/ha [%]
7 | FC(F)(F)COc1c(I)cccc1Oc1ncc(Cl)cn1 [Compound 65] | 100

Each compound was assayed on pigweed (Amaranthus retroflexus) (assay: Test A postemergence, pigweed). Conditions: Amaranthus retroflexus, post-emergence, 240 h; 31 g ai/ha, postemergence; 0 to 100 scale, 0 is no effect, 100 is complete control; approximately 10 days; read-out: Plant response rating, Pigweed.
Format: in vivo
Procedure, shortened: as §1

Row | SMILES | pest or weed control at 31 g/ha [%]
8 | FC(F)(F)COc1c(I)cccc1Oc1ncc(Cl)cn1 [Compound 65] | 70

Same assay, conditions: Amaranthus retroflexus, post-emergence, 240 h; 125 g ai/ha, postemergence; 0 to 100 scale, 0 is no effect, 100 is complete control; approximately 10 days; read-out: Plant response rating, Pigweed

Row | SMILES | pest or weed control at 125 g/ha [%]
9 | FC(F)(F)COc1c(I)cccc1Oc1ncc(Cl)cn1 [Compound 65] | 100

What follows are compounds tested on sedge, umbrella (small-flower umbrella sedge, Cyperus difformis) (assay: Test B flooded paddy test, umbrella sedge). Conditions: Cyperus difformis; 250 g ai/ha, Flood; visual rating after 13 to 15 days; scale 0 to 100, 0 is no effect, 100 is complete control; read-out: Plant response rating, Sedge, Umbrella.
Format: in vivo
Procedure, shortened: as §2

Row | SMILES | pest or weed control at 250 g/ha [%]
10 | FC(F)(F)COc1c(I)cccc1Oc1ncc(Cl)cn1 [Compound 65] | 90

The compounds below were run on ragweed (common ragweed, Ambrosia elatior) (assay: Test A preemergence, ragweed). Conditions: Ambrosia artemisiifolia, pre-emergence, 240 h; Preemergence, 31 g ai/ha; 0 to 100 scale (0 no effect, 100 complete control); read-out: Plant response rating, Ragweed.
Format: in vivo
Procedure, shortened: as §1

Row | SMILES | pest or weed control at 31 g/ha [%]
11 | FC(F)(F)COc1c(I)cccc1Oc1ncc(Cl)cn1 [Compound 65] | 0

Same assay, conditions: Ambrosia artemisiifolia, pre-emergence, 240 h; Preemergence, 125 g ai/ha; 0 to 100 scale (0 no effect, 100 complete control); read-out: Plant response rating, Ragweed

Row | SMILES | pest or weed control at 125 g/ha [%]
12 | FC(F)(F)COc1c(I)cccc1Oc1ncc(Cl)cn1 [Compound 65] | 0

What follows are compounds tested on barnyardgrass (Echinochloa crus-galli) (assay: Test A preemergence, barnyardgrass). Conditions: Echinochloa crus-galli, pre-emergence, 240 h; Preemergence, 125 g ai/ha; 0 to 100 scale (0 no effect, 100 complete control); read-out: Plant response rating, Barnyardgrass.
Format: in vivo
Procedure, shortened: as §1

Row | SMILES | pest or weed control at 125 g/ha [%]
13 | FC(F)(F)COc1c(I)cccc1Oc1ncc(Cl)cn1 [Compound 65] | 70

These compounds were tested on corn (Zea mays) (assay: Test A postemergence, corn). Conditions: Zea mays, post-emergence, 240 h; 31 g ai/ha, postemergence; 0 to 100 scale, 0 is no effect, 100 is complete control; approximately 10 days.
Format: in vivo
Procedure, shortened: as §1

Row | SMILES | Corn plant response rating (crop injury, 0 = no effect, 100 = complete kill) at 31 g/ha [%]
14 | FC(F)(F)COc1c(I)cccc1Oc1ncc(Cl)cn1 [Compound 65] | 10

Same assay, conditions: Zea mays, post-emergence, 240 h; 125 g ai/ha, postemergence; 0 to 100 scale, 0 is no effect, 100 is complete control; approximately 10 days

Row | SMILES | Corn plant response rating (crop injury, 0 = no effect, 100 = complete kill) at 125 g/ha [%]
15 | FC(F)(F)COc1c(I)cccc1Oc1ncc(Cl)cn1 [Compound 65] | 20

Each compound was assayed on foxtail, giant (giant foxtail, Setaria faberii) (assay: Test A preemergence, giant foxtail). Conditions: Setaria faberi, pre-emergence, 240 h; Preemergence, 31 g ai/ha; 0 to 100 scale (0 no effect, 100 complete control); read-out: Plant response rating, Foxtail, Giant.
Format: in vivo
Procedure, shortened: as §1

Row | SMILES | pest or weed control at 31 g/ha [%]
16 | FC(F)(F)COc1c(I)cccc1Oc1ncc(Cl)cn1 [Compound 65] | 30

Same assay, conditions: Setaria faberi, pre-emergence, 240 h; Preemergence, 125 g ai/ha; 0 to 100 scale (0 no effect, 100 complete control); read-out: Plant response rating, Foxtail, Giant

Row | SMILES | pest or weed control at 125 g/ha [%]
17 | FC(F)(F)COc1c(I)cccc1Oc1ncc(Cl)cn1 [Compound 65] | 100

The compounds below were run on blackgrass (Alopecurus myosuroides) (assay: Test A postemergence, blackgrass). Conditions: Alopecurus myosuroides, post-emergence, 240 h; 31 g ai/ha, postemergence; 0 to 100 scale, 0 is no effect, 100 is complete control; approximately 10 days; read-out: Plant response rating, Blackgrass.
Format: in vivo
Procedure, shortened: as §1

Row | SMILES | pest or weed control at 31 g/ha [%]
18 | FC(F)(F)COc1c(I)cccc1Oc1ncc(Cl)cn1 [Compound 65] | 0

Same assay, conditions: Alopecurus myosuroides, post-emergence, 240 h; 125 g ai/ha, postemergence; 0 to 100 scale, 0 is no effect, 100 is complete control; approximately 10 days; read-out: Plant response rating, Blackgrass

Row | SMILES | pest or weed control at 125 g/ha [%]
19 | FC(F)(F)COc1c(I)cccc1Oc1ncc(Cl)cn1 [Compound 65] | 30

The compounds below were run on ryegrass, Italian (Italian ryegrass, Lolium multiflorum) (assay: Test A preemergence, Italian ryegrass). Conditions: Lolium multiflorum, pre-emergence, 240 h; Preemergence, 31 g ai/ha; 0 to 100 scale (0 no effect, 100 complete control); read-out: Plant response rating, Ryegrass, Italian.
Format: in vivo
Procedure, shortened: as §1

Row | SMILES | pest or weed control at 31 g/ha [%]
20 | FC(F)(F)COc1c(I)cccc1Oc1ncc(Cl)cn1 [Compound 65] | 0

Same assay, conditions: Lolium multiflorum, pre-emergence, 240 h; Preemergence, 125 g ai/ha; 0 to 100 scale (0 no effect, 100 complete control); read-out: Plant response rating, Ryegrass, Italian

Row | SMILES | pest or weed control at 125 g/ha [%]
21 | FC(F)(F)COc1c(I)cccc1Oc1ncc(Cl)cn1 [Compound 65] | 10

What follows are compounds tested on rice (Oryza sativa) (assay: Test B flooded paddy test, rice). Conditions: Oryza sativa; 250 g ai/ha, Flood; visual rating after 13 to 15 days; scale 0 to 100, 0 is no effect, 100 is complete control; read-out: Plant response rating, Rice.
Format: in vivo
Procedure, shortened: as §2

Row | SMILES | plant injury at 250 g/ha [%]
22 | FC(F)(F)COc1c(I)cccc1Oc1ncc(Cl)cn1 [Compound 65] | 0

The compounds below were run on ducksalad (Heteranthera limosa) (assay: Test B flooded paddy test, ducksalad). Conditions: Heteranthera limosa; 250 g ai/ha, Flood; visual rating after 13 to 15 days; scale 0 to 100, 0 is no effect, 100 is complete control; read-out: Plant response rating, Ducksalad.
Format: in vivo
Procedure, shortened: as §2

Row | SMILES | pest or weed control at 250 g/ha [%]
23 | FC(F)(F)COc1c(I)cccc1Oc1ncc(Cl)cn1 [Compound 65] | 100

The compounds below were run on wheat (Triticum aestivum) (assay: Test A postemergence, wheat). Conditions: Triticum aestivum, post-emergence, 240 h; 31 g ai/ha, postemergence; 0 to 100 scale, 0 is no effect, 100 is complete control; approximately 10 days; read-out: Plant response rating, Wheat.
Format: in vivo
Procedure, shortened: as §1

Row | SMILES | plant injury at 31 g/ha [%]
24 | FC(F)(F)COc1c(I)cccc1Oc1ncc(Cl)cn1 [Compound 65] | 0

Same assay, conditions: Triticum aestivum, post-emergence, 240 h; 125 g ai/ha, postemergence; 0 to 100 scale, 0 is no effect, 100 is complete control; approximately 10 days; read-out: Plant response rating, Wheat

Row | SMILES | plant injury at 125 g/ha [%]
25 | FC(F)(F)COc1c(I)cccc1Oc1ncc(Cl)cn1 [Compound 65] | 0
